Data set [1] relates to Passive cutaneous anaphylaxis (PCA) in rats. As to the kind of experiment: Passive cutaneous anaphylaxis (PCA) in rats. Format: in vivo, rat. The note with it: for ED50: Rattus norvegicus. The text has this: Cutaneous anaphylaxis was induced in groups of male rats weighing 180-220 g by intradermal (ID) sensitization with antiserum followed three days later by systemic challenge with antigen. Evans blue dye injected with the antigen was used as a marker to assess the severity of the local response. Anti-allergic drugs inhibit this reaction and this method is described by OVARY [(1962) in "Passive cutaneous Anaphylaxis in Allergology" 358-367 Ed. Brown: Pergamon Press:].
1. Wash 120 grams Al (OH)3 gel in 140 ml of saline (use of a macerater facilitates mixing).
2. Centrifuge at 3,000 r.p.m. for about 10 minutes.
3. Resuspend the precipitate with 300 ml of albumen egg powder (1.3 mg/ml) in saline and allow to stand for 30 minutes.
4. Centrifuge at 3,000 r.p.m. for 10 minutes.
5. Weigh the wet precipitate and to each gram weight, add 1 ml of saline. Store in refrigerator. (Quantity sufficient for 60 rats for a 3 day sensitization programme).
1. 1 ml of the alum precipitated ovalbumen was injected subcutaneously into 180-220 gram rats on days 0,2,4.
2. The rats were bled on day 14 either by cardiac puncture or via the dorsal abdominal aorta.
3. Equal quantities of serum from each animal were pooled and thoroughly mixed.
4. 2 ml aliquots were stored at -20° C. in plastic tubes.
The antiserum for sensitization was diluted so that an ID injection of 0.1 ml into control animals gave an average score of a single spot of between 2.0-3.5 using a 5 point scoring system (0,1,2,3,4).
Rats were anaesthetised with Nembutal (40-60 mg/kg i.p.) and were then sensitized by four ID injections (0.1 ml each) on shaved backs. The animals were then left for a period of three days to develop sensitization.
The sensitized rats were dosed orally or intraveneously with the drug immediately prior to intraveneous challenge via the superficial penile vein with 1 ml of an antigen/Evans blue mixture (1 mg albumen egg powder in 0.5 ml saline plus 0.5 ml of 1% Evans blue). The injections were speeded up by using an automatic 1 ml self-filling glass syringe. The "challenged" rats were killed after 30 minutes, (usually pithed) and their skin on the dorsal surface was removed. The degree and area of blueing, proportional to the anaphylactic reaction was assessed on a five point scoring system.
1. Total scores for sites 1,2,3 and 4=X
2. Mean value of X for each group=X

Data set [2] can be described thus: Solubility remark (footnote of Table 1). The class given is physicochemical. The note with it: all solvents.
[3] abbreviates: iv, read-out: ED50 (dose of drug giving 50% inhibition), i.v., dosed immediately prior to intravenous antigen challenge, male rats.
The mark [4] stands for this setting: po, read-out: ED50 (dose of drug giving 50% inhibition), p.o., dosed immediately prior to intravenous antigen challenge, male rats.

16 compounds from patent publication US4333934A, “Imidazoquinoxalines and pyrroloquinoxalines” (Roussel Uclaf, priority 1979, dated 1982) can be followed below.

Structures can show the parent of a compound that is named as a salt. Where two headings read alike, the source gives them in different places.

By ED50 is commonly meant the midpoint of the dose-response relation. In the case of `OCc1cn2c(cnc3ccccc32)n1` [2 (as hydrochloride), Imidazo-[1,2-a]-quinoxaline-2-methanol], the median effective dose (ED50) amounted to 0.16 mg/kg in data set [1] (setting [3]) and 0.068 mg/kg in data set [1] (setting [4]).

As to `c1ccc2c(c1)ncc1nc(-c3nnn[nH]3)cn12` [3 (as hydrochloride), 2-(1H-tetrazol-5-yl)-imidazo-[1,2-a]-quinoxaline], the ED50 in data set [1] (setting [4]) came out at 0.084 mg/kg. For the same compound, in data set [1] (p.o., dosed immediately prior to intravenous antigen challenge, male rats), the “ED50 (dose of drug giving 50% inhibition), p.o.” value is on record as 0.089 mg/kg. Consider `Clc1ccc2c(Cl)cc3nc(-c4nnn[nH]4)cn3c2c1` [11 Step C], for which the “solubility (in words)” value in data set [2] is “extremely insoluble in all solvents”. For `OCc1cn2c(ccc3ccccc32)n1` [Example 5, Imidazo-[1,2-a]-quinoline-2-methanol], the median effective dose (ED50) in data set [1] (setting [4]) turned out to be 0.36 mg/kg. Still for that read-out and setting: with `O=Cc1cn2c(ccc3ccccc32)n1` [Example 6, Imidazo-[1,2-a]-quinoline-2-carboxaldehyde] the figure was 0.09 mg/kg.

For `c1ccc2c(c1)ccc1nc(-c3nnn[nH]3)cn12` [Example 7, 2-(1H-tetrazol-5-yl)-imidazo-[1,2-a]-quinoline], the 50% effective dose (ED50) in data set [1] (setting [3]) was found to be 0.026 mg/kg; in data set [1] (setting [4]), 0.105 mg/kg. With `NCc1cn2c(ccc3ccccc32)n1` [Example 8, Imidazo-[1,2-a]-quinoline-2-methanamine dihydrochloride], the figures for the ED50 in data set [1] (setting [3]) and in data set [1] (setting [4]) were 0.11 mg/kg and 0.98 mg/kg, respectively.

Regarding `COc1ccc2ccc3nc(CO)cn3c2c1` [Example 12], the median effective dose (ED50) in data set [1] (setting [3]) was found to be 0.27 mg/kg; in data set [1] (setting [4]), 0.24 mg/kg.

Take `COc1ccc2ccc3nc(C=O)cn3c2c1` [Example 13]: the ED50 in data set [1] (setting [3]) turned out to be 0.12 mg/kg; in data set [1] (setting [4]), 0.4 mg/kg. In the case of `COc1ccc2ccc3nc(-c4nnn[nH]4)cn3c2c1` [Example 14, 8-methoxy-2-(1H-tetrazol-5-yl)-imidazo-[1,2-a]-quinoline], the figures for the ED50 in data set [1] (setting [3]) and in data set [1] (setting [4]) were 0.01 mg/kg and 0.12 mg/kg, respectively. Take `COc1ccc2ccc3nc(CN)cn3c2c1` [Example 15]: in data set [1] (setting [3]), the ED50 is 3.39 mg/kg. Turning to `CCn1c(=O)c2nc(CO)cn2c2ccccc21` [Example 21, 5-ethyl-2-hydroxymethyl-imidazo-[1,2-a]-quinoxaline-4-(5H)-one], the ED50 in data set [1] (setting [4]) came out at 0.062 mg/kg.

As to `CCn1c(=O)c2nc(C=O)cn2c2ccccc21` [Example 22, 4,5-dihydro-5-ethyl-4-oxo-imidazo-[1,2-a]-quinoxaline-2-carboxaldehyde], the ED50 in data set [1] (setting [4]) came to 0.077 mg/kg. Consider `CCn1c(=O)c2cc(CO)cn2c2ccccc21` [Example 24, 5-ethyl-2-hydroxymethyl-pyrrolo-[1,2-a]-quinoxaline-4(5H)-one], for which the ED50 in data set [1] (setting [4]) came to 0.045 mg/kg.

Turning to `CCn1c(=O)c2cc(-c3nnn[nH]3)cn2c2ccccc21` [Example 26, 5-ethyl-2-(1H-tetrazol-5-yl)-pyrrolo-[1,2-a]-quinoxaline-4(5H)-one], the values for the ED50 in data set [1] (setting [3]) and in data set [1] (setting [4]) were 0.011 mg/kg and 0.439 mg/kg, respectively. `c1ccc2c(c1)OCc1nc(-c3nnn[nH]3)cn1-2` [Example 30, 4H-2-(1H-tetrazol-5-yl)-imidazo-[2,1-c][1,4]-benzoxazine]: the ED50 in data set [1] (setting [3]) came out at 0.33 mg/kg.
